Data set [1] has as its system S. cerevisiae Σ1278b ATCC 42800. The data set is described as follows: Cytotoxicity, alamarBlue (resazurin) assay on yeast cells. Type of data set: cell-based, Saccharomyces cerevisiae. Conditions: ¼ and ½ MIC. The protocol: To determine the cytotoxicity of the tested gemini QAS on yeast cells, an experiment was performed using the alamarBlue colorimetric assay to determine the metabolic activity of cells, using the modified alamarBlue Cell Viability Assay Reagent method. Enzymes of the electron transport system reduce the blue resazurin solution to resorufin, which is fluorescent pink.
The yeast culture S. cerevisiae Σ1278b was incubated at 28 °C for 16 h with shaking (100 rpm), centrifuged (1000 rcf, 5 min) and the optical density was obtained, OD = 1.0, λ = 590 nm. On a 96-well titration plate we spotted 160 μl of YPG medium, 20 μl of yeast culture and the tested gemini QAS at final concentrations of ½ and ¼ MIC. The negative control was YPG medium with resazurin solution, and the positive control was resazurin solution with yeast culture. The plates were incubated at 28 °C for 12 h. Then, 20 μl of resazurin solution (alamarBlue) was added to the wells and the plate was incubated for 4 h in the dark. After incubation, the absorbance was measured at λ = 570 nm and λ = 600 nm and the color change of the wells from blue to pink was observed. The experiment was performed in 3 repetitions.
(Alamar Blue is a resazurin reagent that responds to reducing activity.)

Data set [2] in a line: Krafft point (TK) determination. The format is physicochemical. How it is done: Elemental analysis was conducted utilizing Vario EL cube (Elementar, Germany) calibrated on acetanilide. Mass spectra were gain by electrospray ionization mass spectroscopy (ESI–MS) (micrOTOF-Q instrument; Bruker Daltonics, Germany). The ESI–MS aparatus was operated in the positive ion mode (calibrated with the Tunemix™ mixture; Bruker Daltonics; Germany), followed by spectra analysis by the DataAnalysis 3.4 software (Bruker Daltonics, Germany)—resolution of at least 5 ppm. Proton NMR and ^13C NMR measurements were performed on a Bruker AMX-500 spectrometer, utilizing CDCl3 or DMSO-d6 as a solvent. Proton and ^13C chemical shifts (given in ppm) were calibrated to TMS (δ = 0 ppm) as an internal reference. Krafft points were measured according to procedures described in our previous studies Lamch et al.,[82]. Values of CMC for all surfactants were measured utilizing the conductometric method for the compounds’ solutions in milliQ water in the same manner as described in Kula et al.. For all spectra: ^1H NMR, ^13C NMR and ESI–MS as well as appropriate comments see Electronic Supplementary Material.

Data set [3] relates to Saccharomyces cerevisiae BY4741 ATCC 201388. The data set can be described thus: MIC/MFC, microdilution method (modified CLSI M27). The following applies: for MIC: YPG, read-out: Minimum inhibitory concentration (MIC); for MIC / Minimum fungicidal concentration (MFC*): 28 °C; for Minimum fungicidal concentration (MFC*): no growth on solid YPG. The format is cell-based. How it is done:
(§1) Minimum inhibitory concentration (MIC) and minimum fungicidal concentration (MFC) values were determined based on the modified CLSI M27 protocol. The study was performed using the microdilution method on sterile 96-well titration plates. The S. cerevisiae Σ1278b ATCC 42800, S. cerevisiae BY4741 ATCC 201388, C. albicans ATCC 10231, C. albicans 595/20 and R. mucilaginosa ATCC 4056 were incubated for 18 h at 28 °C (without shaking), then centrifuged (1000 rcf, 5 min), and the obtained pellet was suspended in fresh YPG medium and optical density (OD) = 0.25–0.3 was determined at a wavelength (λ) of 590 nm. Next, 10 μl of selected compounds at appropriate final concentrations (5–1280 μM) were spotted into the wells of the titration plate. Then, 80 μl of YPG medium and 10 μl of culture with a fixed OD were added. All tests were performed in triplicate. The plate was incubated at 28 °C for 24 h. The YPG medium was a negative control, while the prepared culture not treated with compounds was a positive control. […] The minimum inhibitory concentration was determined at 90% growth inhibition.
(§2) In order to determine the MFC of selected gemini surfactants, 10 μl of culture was transferred to solid YPG medium from the wells of the titration plate in which MIC was observed and from wells with the compound with higher concentrations. The spotted suspensions were incubated at 28 °C for 24 h. After incubation, inhibition of the growth of microorganisms was observed.
(In general: In broth dilution the organism is exposed to a series of concentrations in liquid medium.)

Data set [4] relates to Candida albicans ATCC 10231. The data set can be described thus: MIC/MFC, microdilution method (modified CLSI M27). Type of data set: cell-based. The following applies: 28 °C; for MIC / MFC: Candida albicans, ATCC10231, 24 h; for MIC: C. albicans ATCC 10231, 90% growth inhibition, read-out: Minimum inhibitory concentration (MIC); for MFC: C. albicans ATCC 10231, no growth on solid YPG, read-out: Minimum fungicidal concentration (MFC*). The protocol: as §1, §2

Data set [5] relates to Rhodotorula mucilaginosa ATCC 4056. The data set can be described thus: MIC/MFC, microdilution method (modified CLSI M27). Conditions: 28 °C; for MIC: read-out: Minimum inhibitory concentration (MIC); for MFC: read-out: Minimum fungicidal concentration (MFC*). Type of data set: cell-based. The protocol:
as §1, §2

In data set [6] the test system is Saccharomyces cerevisiae Σ1278b ATCC 42800. The data set is described as follows: MIC/MFC, microdilution method (modified CLSI M27). The following applies: S. cerevisiae Σ1278b, 28 °C; for MIC: read-out: Minimum inhibitory concentration (MIC); for MFC: read-out: Minimum fungicidal concentration (MFC*). Type of data set: cell-based. How it is done:
as §1, §2

In the next data set the test system is Candida albicans 595/20. The data set can be described thus: MIC/MFC, microdilution method (modified CLSI M27). Type of data set: cell-based. The following applies: C. albicans 595/20 (clinical isolate), 28 °C; for MIC / MFC: Candida albicans; for MIC: 595/20, 24 h, read-out: Minimum inhibitory concentration (MIC); for MFC: read-out: Minimum fungicidal concentration (MFC*). The protocol: as §1, §2

The subject of data set [7] is Salmonella Typhimurium TA98. The data set can be described thus: Mutagenicity, Ames test. Conditions: for Number of colonies: ± SD. How it is done:
The mutagenic potential of the tested gemini QAS was determined using the Ames test[83] using Salmonella Typhimurium TA98 and Salmonella Typhimurium TA100 with defects in histidine biosynthesis. The culture of S. Typhimurium TA98 and S. Typhimurium TA100 was incubated with shaking at 37 °C for 18 h, centrifuged (3000 rpm, 5 min) and OD = 1.5 was determined, at a wavelength of λ = 590 nm. The agar was dissolved and cooled to 42 °C. […] The media were incubated for 48 h at 37 °C. The positive control for the S. Typhimurium TA98 strain was acriflavin (100 μg/ml), and for the S. Typhimurium TA100 strain, sodium azide (15 μg/ml). The negative control was the culture without tested compound and with NaCl (0,9%). After incubation, the colonies were counted and the mutagenicity index (MR) was determined—the ratio of the number of revertants resulting from the mutagenic effect of the tested compound to the number of spontaneous revertants. Experiment was performed in three repetitions.
Background: In the Ames test, an excess of revertant colonies over the control signals mutagenicity.

The next data set has as its system C. albicans ATCC 10231. The data set can be described thus: Filamentation of Candida albicans (DIC microscopy). The following applies: 24 h incubation, ½ MIC, 37 °C. The format is cell-based. The protocol: The culture of C. albicans ATCC 10231 was incubated in YPG medium at 28 °C for 18 h. Then the culture was centrifuged (1000 rcf, 5 min), and the resulting pellet was suspended in fresh YPG medium to obtain a culture with OD = 0.6. […] The formation of filaments was observed using a differential interference contrast microscope (Olympus BX50 DIC Microscope) after 12 and 24 h of exposure to selected surfactants on C. albicans cells. The control was a culture not exposed to gemini QAS. The experiment was performed based on a modification of the protocol of Obłąk et al. ^46.

The mark [8] stands for this setting: S. cerevisiae BY4741, 90% growth inhibition, 24 h.
Setting [9] is: R. mucilaginosa ATCC 4056, 90% growth inhibition, YPG, 24 h.
The mark [10] stands for this setting: R. mucilaginosa ATCC 4056, no growth on solid YPG, 24 h.
Setting [11] is: 90% growth inhibition, YPG, 24 h.

This is an account of results in paper PMC11187217, “Anti-adhesive, anti-biofilm and fungicidal action of newly synthesized gemini quaternary ammonium salts” (Scientific Reports, 2024).

The structures appear in SMILES notation. Read-outs that look alike come from different tables or passages of the source. Marks after values point to notes of the source that are not given here.

`CCCCCCCCCCCCCC(=O)N(CCCN(CCC[N+](C)(C)C)C(=O)CCCCCCCCCCCCC)CCC[N+](C)(C)C` [2xC14BrG3]: the “Cytotoxic potential towards mitochondrial metabolism of S. cerevisiae Σ1278b cells” value in data set [1] was “did not have cytotoxic potential”. Further, the “TK (Krafft point)” value in data set [2] is less than 0 °C. For the same compound, the MIC was 160 µM in [3] (Saccharomyces cerevisiae, ATCC201388, 24 h, S. cerevisiae BY4741, 90% growth inhibition); 640 µM in data set [4] (YPG); 80 µM in data set [5] (Rhodotorula mucilaginosa, ATCC4056, 24 h, R. mucilaginosa ATCC 4056, 90% growth inhibition, YPG); 360 µM in data set [6] (Saccharomyces cerevisiae, ATCC42800, 24 h, 90% growth inhibition, YPG); 640 µM in the data set on Candida albicans 595/20 (90% growth inhibition, YPG). Also, the MFC in data set [3] (Saccharomyces cerevisiae, ATCC201388, 24 h, read-out: Minimum fungicidal concentration (MFC*), S. cerevisiae BY4741, no growth on solid YPG, 28 °C) is 1280 µM; in data set [4], 1280 µM; in data set [5] (Rhodotorula mucilaginosa, ATCC4056, 24 h, R. mucilaginosa ATCC 4056, no growth on solid YPG) it was 320 µM; in [6] (Saccharomyces cerevisiae, ATCC42800, 24 h, no growth on solid YPG), 640 µM; in the data set with Candida albicans 595/20 (no growth on solid YPG, 24 h) it was more than 1280 µM. For the same compound, the “Mutagenicity ratio (MR)” value in data set [7] (TA98, ¼ MIC) came out at 1.08; in [7] (TA98, ½ MIC) it was 1.75. Further, the Number of colonies in data set [7] (TA98, ¼ MIC) came out at 29.7 ± 2.08; in data set [7] (TA98, ½ MIC), 48.0 ± 2.83. Further, the “Effect on production of filaments by C. albicans” value (“Effect on production of filaments” for short) in the data set with C. albicans ATCC 10231 was “had little effect on the formation of filaments”.
Take `CCCCCCCCCCCCCCCC(=O)N(CCCN(CCC[N+](C)(C)C)C(=O)CCCCCCCCCCCCCCC)CCC[N+](C)(C)C` [2xC16LaG3]: the “Cytotoxic potential towards mitochondrial metabolism of S. cerevisiae Σ1278b cells” value in data set [1] is on record as “did not have cytotoxic potential”. In [2], the “TK (Krafft point)” value is less than 0 °C. The results for the MIC in [3] (setting [8]) and in data set [5] (setting [9]) were 640 µM and 80 µM, respectively. For the same compound, the “Minimum fungicidal concentration (MFC*)” value in data set [3] (S. cerevisiae BY4741, 24 h) is listed as more than 1280 µM; in data set [4] (C. albicans ATCC 10231, no growth on solid YPG, 24 h), > 1280 > 1280* µM; in [6] (no growth on solid YPG, 24 h), > 1280 > 1280* µM; with Candida albicans 595/20 (no growth on solid YPG, 24 h) it was > 1280 > 1280* µM. In addition, the “Minimum inhibitory concentration (MIC)” value is > 1280 > 1280* µM in data set [4] (C. albicans ATCC 10231, 90% growth inhibition, YPG, 24 h); > 1280 > 1280* µM in [6] (setting [11]); > 1280 > 1280* µM in the data set with Candida albicans 595/20 (setting [11]). The MFC in data set [5] (setting [10]) was determined as 640 µM. Further, the “Mutagenicity ratio (MR)” value in data set [7] (TA98, ¼ MIC) stood at 1.12; in [7] (TA98, ½ MIC), 1.35. Moreover, the Number of colonies in [7] (TA98, ¼ MIC) was 30.7 ± 1.15; in [7] (TA98, ½ MIC) it was 37.0 ± 3.46. Besides, the “Effect on production of filaments” value with C. albicans ATCC 10231 was “strongly prevented the formation of filaments”.
As to `CCCCCCCCCCCC(=O)N(CCCN(CCC[N+](C)(C)C)C(=O)CCCCCCCCCCC)CCC[N+](C)(C)C` [2xC12BrG3], the “Cytotoxic potential towards mitochondrial metabolism of S. cerevisiae Σ1278b cells” value in [1] is “did not have cytotoxic potential”. Also, in data set [2], the “TK (Krafft point)” value was less than 0 °C. The MIC was 20 µM in data set [3] (setting [8]); 640 µM in data set [4] (YPG); 10 µM in [5] (setting [9]); 240 µM in data set [6] (setting [11]); 1280 µM in the data set with Candida albicans 595/20 (90% growth inhibition, YPG). Also, the “Minimum fungicidal concentration (MFC*)” value in data set [3] (S. cerevisiae BY4741, 24 h) was 320 µM; in data set [5] (setting [10]) it was 10 10* µM. In addition, the MFC in data set [4] is 640 µM; in data set [6] (no growth on solid YPG, 24 h), 320 µM; with Candida albicans 595/20 (no growth on solid YPG, 24 h), more than 1280 µM. The “Minimum inhibitory concentration (MIC)” value in data set [5] (setting [9]) is on record as 10 10* µM. For the same compound, the “Mutagenicity ratio (MR)” value in [7] (TA98, ¼ MIC) was found to be 0.82; in data set [7] (TA98, ½ MIC), 7.67. Also, the Number of colonies in data set [7] (TA98, ¼ MIC) was determined as 18.7 ± 2.31; in data set [7] (TA98, ½ MIC) it was 174.5 ± 9.19. For the same compound, the “Effect on production of filaments” value in the data set on C. albicans ATCC 10231 (listed as Dibromides with 12-carbon hydrophobic chains) was “completely inhibits filament formation and cell growth”.
